Measured values as given in the supplement of paper PMC11003180.

Tests used:
Test in all cases: drug sensitivity score (DSS) from 5-dose viability curve (DSS (area-based score, 0 = no response)); higher = more sensitive (stronger viability inhibition); extreme values may be limits of the assay
[1] = test system: MDCK wild-type - doxycycline; conditions: doxycycline: none; 72 h
Outline: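 An oncology library of 528 drugs was pre-spotted at five doses (1-10,000 nM) in 384-well plates, and parental MDCK cells without doxycycline were added at 2000 cells/well. The plates were kept at 37 °C for 72 h. Drug sensitivity scores were obtained by fitting dose-response curves in the Breeze pipeline to CellTiter-Glo viability readings scaled per plate between vehicle and positive controls.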

[2] = test system: MDCK wild-type + doxycycline; conditions: doxycycline: 10 ng/mL; 72 h
Outline: (§1)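 Parental MDCK cells and MDCK cells with a doxycycline-inducible transgene were both grown with doxycycline at 10 ng/mL in the medium before plating, then dispensed at 2000 cells/well into 384-well plates pre-spotted with an oncology library of 528 drugs at five doses (1-10,000 nM). After 72 h at 37 °C, CellTiter-Glo luminescence was recorded and scaled on each plate between vehicle and positive controls. This scaled signal served as the viability readout, and drug sensitivity scores were derived from dose-response curve fits in the Breeze pipeline.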

[3] = test system: MDCK p60AmotL2-inducible + doxycycline (p60AmotL2 expressing); conditions: doxycycline: 10 ng/mL; 72 h
Outline: as §1

CC(C)Cn1cnc2c(N)nc3ccccc3c21 [Imiquimod]
drug sensitivity score [1]: 0 | drug sensitivity score [2]: 0 | drug sensitivity score [3]: 0.3

CCN1CCN(Cc2ccc(Nc3ncc(F)c(-c4cc(F)c5nc(C)n(C(C)C)c5c4)n3)nc2)CC1 [Abemaciclib]
drug sensitivity score [1]: 3.3 | drug sensitivity score [2]: 5.6 | drug sensitivity score [3]: 7.3

CCn1cc(-c2ccnc3[nH]c(-c4cccc(CN(C)C)c4)cc23)c(-c2ccc(NC(=O)N(C)C)cc2)n1
drug sensitivity score [1]: 0.4 | drug sensitivity score [2]: 1.9 | drug sensitivity score [3]: 7.1

CC(C)[C@@H](CS(=O)(=O)C(C)C)N1C(=O)[C@@](C)(CC(=O)O)C[C@H](c2cccc(Cl)c2)[C@H]1c1ccc(Cl)cc1 [AMG-232]
drug sensitivity score [1]: 5.9 | drug sensitivity score [2]: 7.2 | drug sensitivity score [3]: 9.8

CN1CCN(c2cc(C(=O)Nc3ccc4c(c3)-c3c(c(C(N)=O)nn3-c3ccc(F)cc3)CC4)c(Cl)cn2)CC1 [PHA 408]
drug sensitivity score [1]: 0 | drug sensitivity score [2]: 0 | drug sensitivity score [3]: 0.2

CC[C@@H]1C(=O)N(C)c2cnc(Nc3ccc(C(=O)N[C@H]4CC[C@H](N5CCN(CC6CC6)CC5)CC4)cc3OC)nc2N1C(C)C [Volasertib]
drug sensitivity score [1]: 16.6 | drug sensitivity score [2]: 15.3 | drug sensitivity score [3]: 17.4

CCCc1cc(C)[nH]c(=O)c1CNC(=O)c1cc(-c2ccnc(N3CCN(C)CC3)c2)cc2c1cnn2C(C)C [GSK343]
drug sensitivity score [1]: 0 | drug sensitivity score [2]: 0 | drug sensitivity score [3]: 0

Clc1ccc(Nc2nnc(Cc3ccncc3)c3ccccc23)cc1 [Vatalanib]
drug sensitivity score [1]: 0 | drug sensitivity score [2]: 0 | drug sensitivity score [3]: 0

N[C@@H]1CCCN(c2c(/C=C3\SC(=O)NC3=O)cccc2-c2ccccc2)C1 [AZD1208]
drug sensitivity score [1]: 0 | drug sensitivity score [2]: 0 | drug sensitivity score [3]: 1

CCCOc1ccn2c(C(C)=O)cc(-c3ccccc3S(C)(=O)=O)c2c1 [GSK2801]
drug sensitivity score [1]: 0 | drug sensitivity score [2]: 0 | drug sensitivity score [3]: 0

Cc1[nH]nc(C(F)(F)F)c1Cc1sc2c(c1C(=O)N1C[C@](C)(O)CO1)c(=O)n(C)c(=O)n2C(C)C [AZD3965]
drug sensitivity score [1]: 0 | drug sensitivity score [2]: 0 | drug sensitivity score [3]: 4.5

C[C@@]1(C(=O)Nc2ccc(F)nc2)CCCN1c1nc(Nc2cc(C3CC3)n[nH]2)c2cccn2n1
drug sensitivity score [1]: 0 | drug sensitivity score [2]: 8.5 | drug sensitivity score [3]: 12.6

C[C@H](Nc1ncnc2[nH]cnc12)c1cc2ccc(F)cc2nc1-c1ccccn1 [AMG319]
drug sensitivity score [1]: 0 | drug sensitivity score [2]: 0 | drug sensitivity score [3]: 0

Cc1ccc(F)c(NC(=O)Nc2ccc(-c3cccc4[nH]nc(N)c34)cc2)c1 [Linifanib]
drug sensitivity score [1]: 0 | drug sensitivity score [2]: 0 | drug sensitivity score [3]: 0

CONC(=O)c1ccccc1Nc1cc(Nc2cc(C)nn2C(C)C)ncc1Cl
drug sensitivity score [1]: 0 | drug sensitivity score [2]: 0 | drug sensitivity score [3]: 1.2

C[C@@H]1CN(CC(=O)Nc2ccc3c(c2)Cc2cccc(-c4cc(=O)cc(N5CCOCC5)o4)c2S3)C[C@H](C)O1
drug sensitivity score [1]: 2.2 | drug sensitivity score [2]: 2 | drug sensitivity score [3]: 2.4

CC(C)C[C@H](NC(=O)[C@@H](COC(C)(C)C)NC(=O)[C@H](Cc1ccc(O)cc1)NC(=O)[C@H](CO)NC(=O)[C@H](Cc1c[nH]c2ccccc12)NC(=O)[C@H](Cc1cnc[nH]1)NC(=O)[C@@H]1CCC(=O)N1)C(=O)N[C@@H](CCCNC(=N)N)C(=O)N1CCC[C@H]1C(=O)NNC(N)=O [Goserelin]
drug sensitivity score [1]: 0 | drug sensitivity score [2]: 0 | drug sensitivity score [3]: 0

CC(C)Oc1ccc(C(=O)N[C@H](CNC(=O)CN(C)C)Cc2ccc(-c3cn4cccc([C@H](C)O)c4n3)cc2)cc1Cl
drug sensitivity score [1]: 10.7 | drug sensitivity score [2]: 12.8 | drug sensitivity score [3]: 15.8

O=c1[nH]cc(F)c(=O)[nH]1 [Fluorouracil]
drug sensitivity score [1]: 8.6 | drug sensitivity score [2]: 9.7 | drug sensitivity score [3]: 9.2

COc1cc(C(=O)O)ccc1NC(=O)[C@@H]1N[C@@H](CC(C)(C)C)[C@](C#N)(c2ccc(Cl)cc2F)[C@H]1c1cccc(Cl)c1F [Idasanutlin]
drug sensitivity score [1]: 8.4 | drug sensitivity score [2]: 12.6 | drug sensitivity score [3]: 16.2

CC(C)[C@H]1C(=O)N[C@@H](CCCNC(=N)N)C(=O)NCC(=O)N[C@@H](CC(=O)O)C(=O)N[C@H](Cc2ccccc2)C(=O)N1C [Cilengitide]
drug sensitivity score [1]: 0.2 | drug sensitivity score [2]: 0 | drug sensitivity score [3]: 3.8

CO[C@@H](C(=O)N1Cc2[nH]nc(NC(=O)c3ccc(N4CCN(C)CC4)cc3)c2C1)c1ccccc1 [Danusertib]
drug sensitivity score [1]: 4.4 | drug sensitivity score [2]: 5.6 | drug sensitivity score [3]: 8.4

CNC(=O)CN1CCC(Oc2cc3c(Nc4cccc(Cl)c4F)ncnc3cc2OC)CC1 [Sapitinib]
drug sensitivity score [1]: 1.2 | drug sensitivity score [2]: 4.5 | drug sensitivity score [3]: 12.9

Cc1ncc(Cl)cc1NCc1ccc(C(=O)N[C@@H](CC2CCCC2)C(=O)NC2CC2)s1
drug sensitivity score [1]: 0 | drug sensitivity score [2]: 0 | drug sensitivity score [3]: 0

O=C(Nc1cnn2ccc(N3CCC[C@@H]3c3cc(F)ccc3F)nc12)N1CC[C@H](O)C1 [Larotrectinib]
drug sensitivity score [1]: 0 | drug sensitivity score [2]: 0 | drug sensitivity score [3]: 0

CN1CCN(CCOc2cc(OC3CCOCC3)c3c(Nc4c(Cl)ccc5c4OCO5)ncnc3c2)CC1 [Saracatinib]
drug sensitivity score [1]: 12.6 | drug sensitivity score [2]: 12.6 | drug sensitivity score [3]: 19.5

O=C(/C=C/c1cccc(S(=O)(=O)Nc2ccccc2)c1)NO [Belinostat]
drug sensitivity score [1]: 14 | drug sensitivity score [2]: 15.8 | drug sensitivity score [3]: 19

Cc1ccc(-n2nc(C(C)(C)C)cc2NC(=O)Nc2ccc(OCCN3CCOCC3)c3ccccc23)cc1 [Doramapimod]
drug sensitivity score [1]: 0 | drug sensitivity score [2]: 0 | drug sensitivity score [3]: 0

COc1cc2c(Nc3ccc(Cl)c(Cl)c3F)ncnc2cc1OC[C@@H]1C[C@@H]2CN(C)C[C@@H]2C1 [Tesevatinib]
drug sensitivity score [1]: 5.8 | drug sensitivity score [2]: 8.5 | drug sensitivity score [3]: 18.9

OC[C@H]1O[C@@H](n2cnc3c2N=CNC[C@H]3O)C[C@@H]1O [Pentostatin]
drug sensitivity score [1]: 0 | drug sensitivity score [2]: 0 | drug sensitivity score [3]: 0

Cc1cnc(Nc2ccc(OCCN3CCCC3)cc2)nc1Nc1cccc(S(=O)(=O)NC(C)(C)C)c1 [Fedratinib]
drug sensitivity score [1]: 6 | drug sensitivity score [2]: 5.7 | drug sensitivity score [3]: 6.9

CCc1nc(C(N)=O)c(Nc2ccc(N3CCC(N4CCN(C)CC4)CC3)c(OC)c2)nc1NC1CCOCC1 [Gilteritinib]
drug sensitivity score [1]: 0.9 | drug sensitivity score [2]: 0.1 | drug sensitivity score [3]: 1

C=CC(=O)Nc1cc(Nc2nccc(-c3cn(C)c4ccccc34)n2)c(OC)cc1N(C)CCN(C)C [Osimertinib]
drug sensitivity score [1]: 4.6 | drug sensitivity score [2]: 6.4 | drug sensitivity score [3]: 10.9

CC(C)c1c(C(=O)Nc2ccccc2)c(-c2ccccc2)c(-c2ccc(F)cc2)n1CC[C@@H](O)C[C@@H](O)CC(=O)O [Atorvastatin]
drug sensitivity score [1]: 0 | drug sensitivity score [2]: 0 | drug sensitivity score [3]: 0.4

Nc1ncn([C@H]2C[C@H](O)[C@@H](CO)O2)c(=O)n1 [Decitabine]
drug sensitivity score [1]: 1.1 | drug sensitivity score [2]: 0 | drug sensitivity score [3]: 0.6

COc1cc2c(Oc3ccc4[nH]c(C)cc4c3F)ncnc2cc1OCCCN1CCCC1 [Cediranib]
drug sensitivity score [1]: 0 | drug sensitivity score [2]: 0 | drug sensitivity score [3]: 0.3

COc1cc(Nc2ncc3c(n2)-c2ccc(Cl)cc2C(c2c(F)cccc2OC)=NC3)ccc1C(=O)O [Alisertib]
drug sensitivity score [1]: 0 | drug sensitivity score [2]: 0 | drug sensitivity score [3]: 10.6

Cc1ccc(=O)n(-c2ccccc2)c1 [Pirfenidone]
drug sensitivity score [1]: 0 | drug sensitivity score [2]: 0 | drug sensitivity score [3]: 0

COc1cc(Nc2ncc(F)c(Nc3ccc4c(n3)N(COP(=O)(O)O)C(=O)C(C)(C)O4)n2)cc(OC)c1OC [Fostamatinib]
drug sensitivity score [1]: 0.7 | drug sensitivity score [2]: 1.8 | drug sensitivity score [3]: 4.6

C=CC(=O)N1CC/C(=C\c2ccc(F)c([N+](=O)[O-])c2)C(=O)/C(=C/c2ccc(F)c([N+](=O)[O-])c2)C1 [VLX1570]
drug sensitivity score [1]: 15.5 | drug sensitivity score [2]: 17.3 | drug sensitivity score [3]: 17.2

Cc1ccc(C(=O)N(CCCN)[C@@H](c2oc3cc(Cl)ccc3c(=O)c2Cc2ccccc2)C(C)C)cc1
drug sensitivity score [1]: 15.3 | drug sensitivity score [2]: 5.8 | drug sensitivity score [3]: 8.8

C=CC(=O)Nc1cccc(Oc2nc(Nc3ccc(N4CCN(C)CC4)cc3)nc3ccsc23)c1 [Olmutinib]
drug sensitivity score [1]: 0 | drug sensitivity score [2]: 0 | drug sensitivity score [3]: 1.5

CCN(CC)CCNC(=O)c1c(C)[nH]c(/C=C2\C(=O)Nc3ccc(-c4csc(-c5ccccc5)n4)cc32)c1C [Amcasertib]
drug sensitivity score [1]: 0 | drug sensitivity score [2]: 0 | drug sensitivity score [3]: 0

Cc1nc(NC(=O)N2CCC[C@H]2C(N)=O)sc1-c1ccnc(C(C)(C)C(F)(F)F)c1 [Alpelisib]
drug sensitivity score [1]: 0.7 | drug sensitivity score [2]: 0 | drug sensitivity score [3]: 1.6
